# Reference: patent US12084422B2, “Phenyl-n-quinoline derivatives for treating a RNA virus infection” (ABIVAX, priority 2018, dated 2024)
# Tested on: Chikungunya Virus (CHIKV) strain LR2006-OPY1 with GFP modification (CHIK 5'LR)
# Test: Inhibition of Chikungunya virus (CHIKV) production in infected HEK293T cell line (GFP fluorescence)
# Assay type: cell-based
# Settings: HEK-293T, infected HEK293T cells; for inhibition at 1 µM: compounds at 1 μM, MOI 0.1, 22 h, values above 100 lowered to 100, read-out: % CHIKV Inhibition Mean (n = 2); for IC50: second round of experiments
# Method: The ability of the compounds to inhibit viral replication was assessed with an experiment in which infected cells were treated by compounds of formula (I) at 1 μM. As a positive control for inhibition of Chikungunya, Ribavirin was used. Toxicity of the compounds was assessed in parallel.
# Human embryonic kidney cells 293T (HEK293T, CRL-11268) were maintained in Dulbecco's modified Eagle's Medium (DMEM, 31966-021, Thermo Fisher Scientific) supplemented with 10% of fetal bovine serum (FBS), penicillin and streptomycin. After removal of the medium, cells were washed with a Ca^2+- and Mg^2+-free salt solution to remove all traces of serum. After aspiration of wash solution, cells were dissociated with 0.25% Trypsin-EDTA solution and incubated 30 s at least in 37° ° C. incubator. Concentration of cell suspension was determined by an automatic cell counter (EVE, NanoEntek) and, if needed, adjusted to 0.33×10^6 cells/mL with DMEM medium supplemented with 10% FBS.
# 100 μL of the cell suspension were dispatched in a ViewPlate-96 Black (6005182, PerkinElmer) and in a transparent 96-well cell culture plate (655180, Greiner bio-one). After an incubation for 24 h at 37° C. under 5% of CO2, compounds were added at the proper concentration.
# An intermediate dilution was prepared with DMSO (D8418, Sigma) at 2 mM in a 96-well V-bottom microplate from the stock solution:
# Mix 1 μL of the 50 mM stock library in 25 μL of DMSO.
# Mix 2 μL of the 25 mM stock library in 25 μL of DMSO.
# An intermediate dilution was prepared with DMSO (D8418, Sigma) at 25 mM in a 96-well V-bottom microplate from the stock solution:
# Mix 2 μL of the 50 mM stock library in 2 μL of DMSO.
# Serial dilutions were performed in 2 μL of DMSO 13 times to reach 0.0015 mM as follows in table III:
# For both screen and determination of IC50 1 μL of each solution was added in a 1 mL Masterblock 96 wells (Greiner bio-one, 780261) containing 1 mL of DMEM medium. As a positive control, 5 μL of a 80 mM Ribavirin solution (R9644, Sigma) is added to 1 mL of DMEM. On the other hand, DMSO is used as a negative control.
# […]. Vector Borne Zoonotic Dis. 2006; 6(4)). This modified virus was used to infect cells at MOI 0.1. […].
# Medium was removed after 22 h at 37° ° C. under 5% of CO2 and cells were washed as described above. 60 μL of RIPA buffer (50 mM Tris-HCl pH8, 100 mM NaCl, 1 mM MgCl2, 1% Triton X-100) was added to cells and incubated for at least 20 min before reading fluorescence signal. Pierce 660 nm Protein Assay Reagent (22660, Thermo scientific) was used to normalize fluorescence signal by protein quantity.
# A first round of experiments has been performed wherein the results are expressed as inhibition percentage, which is calculated as follows, through the following steps:
# 1. Fluorescence intensity (FI) 509 nm/Absorbance 660 nm (A660)=A
# This ratio allows considering the infection (GFP virus) to the protein amount.
# 2. A′=A—background noise of non-infected plate,
# 3. B=Fluorescence intensity (FI)/Absorbance 660 nm (A660) of infected but non treated plates,
# 4. C=A′/B which is then converted as the percentage of infection after treatment, compared to non-treated sample, and subsequently as the […]. For instance, a value of 100 in Table IV here below means that, after treatment, the signal attributed to GFP fluorescence is abolished, which is correlated to the absence of infection.
# This value corresponds to the inhibition's percentage.
# The following Table IV encompasses said C′ value for some compounds as calculated above with a mean of 2 experiments, and the corresponding standard deviation.
# Some values were originally above 100. In these cases, the value has been lowered to 100. This means that some molecules also have an impact on the viability of the cells. In other words, the A value may be lower than the background noise.
# Moreover, for each measure, the test was performed with Ribavirin as control. The value of the inhibition percentage was checked, giving 100%.
Compound,inhibition at 1 µM,IC50
"Cc1cc(OC(C)C)ccc1Nc1ccc2cccc(Cl)c2n1 [Compound 10, 8-chloro-N-(4-isopropoxy-2-methylphenyl)quinolin-2-amine]",100%,1 to 200 nM
"CCc1cc(OC(C)C)ccc1Nc1ccc2cccc(Cl)c2n1 [Compound 13, 8-chloro-N-(2-ethyl-4-isopropoxyphenyl)quinolin-2-amine]",100%,1 to 200 nM
"Cc1cc(OC(C)C)c(C)cc1Nc1ccc2cccc(Cl)c2n1 [Compound 43, 8-chloro-N-(4-isopropoxy-2,5-dimethylphenyl)quinolin-2-amine]",–,1 to 200 nM
